# Laboratory results: patent publication US11186544B2 (BRISTOL-MYERS SQUIBB COMPANY, priority 2017, dated 2021)
# Like-named read-outs stand apart in the source and are kept apart here.
# Legend:
# human FPR2 = human FPR2 (Homo sapiens (Human), UniProt P25090); experiment: FPR2 cyclic adenosine monophosphate (cAMP) assay; assay type: cell-based; conditions: CHO cells overexpressing human FPR2
# Procedure: FPR2 and FPR1 Cyclic Adenosine Monophosphate (cAMP) Assays. A mixture of forskolin (5 μM final for FPR2 or 10 μM final for FPR1) and IBMX (200 μM final) were added to 384-well Proxiplates (Perkin-Elmer) pre-dotted with test compounds in DMSO (1% final) at final concentrations in the range of 0.020 nM to 100 μM. Chinese Hamster Ovary cells (CHO) overexpressing human FPR1 or human FPR2 receptors were cultured in F-12 (Ham's) medium supplemented with 10% qualified FBS, 250 μg/ml zeocin and 300 μg/ml hygromycin (Life Technologies). Reactions were initiated by adding 2,000 human FPR2 cells per well or 4,000 human FPR1 cells per well in Dulbecco's PBS (with calcium and magnesium) (Life Technologies) supplemented with 0.1% BSA (Perkin-Elmer). The reaction mixtures were incubated for 30 min at room temperature. The level of intracellular cAMP was determined using the HTRF HiRange cAMP assay reagent kit (Cisbio) according to manufacturer's instruction. Solutions of cryptate conjugated anti-cAMP and d2 flurorophore-labelled cAMP were made in a supplied lysis buffer separately. Upon completion of the reaction, the cells were lysed with equal volume of the d2-cAMP solution and anti-cAMP solution. […] The potency and activity of a compound to inhibit cAMP production was then determined by fitting to a 4-parametric logistic equation from a plot of cAMP level versus compound concentrations.
# human FPR1 = human FPR1 (Homo sapiens (Human), UniProt P21462); experiment: FPR1 cyclic adenosine monophosphate (cAMP) assay; assay type: cell-based; conditions: CHO cells overexpressing human FPR1; inhibition of forskolin (10 μM) stimulated cAMP; read-out: hFPR1 cAMP EC50
# Chain of human FPR1 (P21462 whole entry): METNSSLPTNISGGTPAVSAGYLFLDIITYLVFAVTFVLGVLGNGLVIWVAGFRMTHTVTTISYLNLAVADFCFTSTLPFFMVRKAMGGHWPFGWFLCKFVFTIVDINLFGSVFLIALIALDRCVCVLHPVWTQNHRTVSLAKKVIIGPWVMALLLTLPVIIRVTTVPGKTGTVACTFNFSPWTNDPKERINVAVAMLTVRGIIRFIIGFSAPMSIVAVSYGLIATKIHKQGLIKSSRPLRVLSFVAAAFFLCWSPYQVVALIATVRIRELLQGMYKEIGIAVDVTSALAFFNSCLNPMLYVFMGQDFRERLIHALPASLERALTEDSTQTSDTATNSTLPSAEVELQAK
# Procedure: FPR2 and FPR1 Cyclic Adenosine Monophosphate (cAMP) Assays. A mixture of forskolin (5 μM final for FPR2 or 10 μM final for FPR1) and IBMX (200 μM final) were added to 384-well Proxiplates (Perkin-Elmer) pre-dotted with test compounds in DMSO (1% final) at final concentrations in the range of 0.020 nM to 100 μM. Chinese Hamster Ovary cells (CHO) overexpressing human FPR1 or human FPR2 receptors were cultured in F-12 (Ham's) medium supplemented with 10% qualified FBS, 250 μg/ml zeocin and 300 μg/ml hygromycin (Life Technologies). Reactions were initiated by adding 2,000 human FPR2 cells per well or 4,000 human FPR1 cells per well in Dulbecco's PBS (with calcium and magnesium) (Life Technologies) supplemented with 0.1% BSA (Perkin-Elmer). The reaction mixtures were incubated for 30 min at room temperature. The level of intracellular cAMP was determined using the HTRF HiRange cAMP assay reagent kit (Cisbio) according to manufacturer's instruction. Solutions of cryptate conjugated anti-cAMP and d2 flurorophore-labelled cAMP were made in a supplied lysis buffer separately. Upon completion of the reaction, the cells were lysed with equal volume of the d2-cAMP solution and anti-cAMP solution. After a 1-h room temperature incubation, time-resolved fluorescence intensity was measured using the Envision (Perkin-Elmer) at 400 nm excitation and dual emission at 590 nm and 665 nm. A calibration curve was constructed with an external cAMP standard at concentrations ranging from 1 μM to 0.1 pM by plotting the fluorescent intensity ratio from 665 nm emission to the intensity from the 590 nm emission against cAMP concentrations. The potency and activity of a compound to inhibit cAMP production was then determined by fitting to a 4-parametric logistic equation from a plot of cAMP level versus compound concentrations.
# [1] = inhibition of forskolin (5 μM) stimulated cAMP, read-out: hFPR2 cAMP2 EC50
# [2] = hFPR2 Assay, read-out: hFPR2 agonist activity EC50
# Chain of human FPR2 (P25090 whole entry): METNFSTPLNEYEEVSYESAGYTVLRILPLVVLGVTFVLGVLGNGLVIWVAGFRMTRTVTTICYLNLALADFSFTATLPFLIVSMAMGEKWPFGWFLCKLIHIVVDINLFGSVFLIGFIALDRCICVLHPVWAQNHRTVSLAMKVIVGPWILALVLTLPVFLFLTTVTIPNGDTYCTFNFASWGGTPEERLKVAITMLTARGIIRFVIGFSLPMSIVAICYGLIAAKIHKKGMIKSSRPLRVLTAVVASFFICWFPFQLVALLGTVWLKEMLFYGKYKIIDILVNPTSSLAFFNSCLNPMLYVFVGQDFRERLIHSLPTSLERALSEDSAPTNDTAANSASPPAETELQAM
SMILES,EC50 (human FPR2; [1]) [nM],EC50 (human FPR1) [nM],EC50 (human FPR2; [2]) [nM]
"CS(=O)(=O)Nc1ccccc1-c1ccc(N2C[C@H](O)C[C@@H](NC(=O)Nc3ccc(Cl)cc3F)C2=O)cc1 [Example 277, N-(4′-((3R,5R)-3-(3-(4-chloro-2-fluorophenyl)ureido)-5-hydroxy-2-oxopiperidin-1-yl)-[1,1′-biphenyl]-2-yl)methanesulfonamide]",0.17,8.4,
CS(=O)(=O)Nc1ccccc1-c1ccc(N2CCC[C@@H](NC(=O)Nc3ccc(Cl)cc3)C2=O)cc1 [Example 86],0.14,32,
CCOc1ncccc1-c1ccc(N2CCC[C@@H](NC(=O)Nc3ccc(C(F)(F)F)cc3)C2=O)cc1 [Example 129],9.4,170,
"CC(N)c1cccc(-c2ccc(N3CCC[C@@H](NC(=O)Nc4ccc(C(F)(F)F)cn4)C3=O)c(F)c2F)c1 (stereo partly drawn) [Example 280, 1-((3R)-1-(3′-(1-Aminoethyl)-2,3-difluoro-[1,1′-biphenyl]-4-yl)-2-oxopiperidin-3-yl)-3-(5-(trifluoromethyl)pyridin-2-yl)urea]",,,5 to 40
CS(=O)(=O)Nc1ccccc1-c1ccc(N2C[C@H](O)C[C@@H](NC(=O)Nc3ccc(C(F)(F)F)cc3)C2=O)cc1 [Example 213],0.75,110,
CN(c1ncccc1-c1ccc(N2CCC[C@@H](NC(=O)Nc3ccc(C(F)(F)F)cc3)C2=O)cc1)S(C)(=O)=O [Example 145],0.36,15,
CS(=O)(=O)Nc1ccccc1-c1ccc(N2CCC[C@@H](NC(=O)Nc3ccc(Cl)cc3F)C2=O)cc1 [Example 188],0.13,25,
COc1cc(-c2ccccc2NS(C)(=O)=O)ccc1N1CCC[C@@H](NC(=O)Nc2ncc(C(F)(F)F)cc2F)C1=O [Example 255],17,3300,
CS(=O)(=O)Nc1ccccc1-c1ccc(N2C[C@H](O)C[C@@H](NC(=O)Nc3ccc(Cl)cc3)C2=O)cc1 [Example 211],0.35,27,
O=C(Nc1ccc(C(F)(F)F)cc1)N[C@@H]1CCCN(c2ccc(-c3cccc(F)c3F)cc2)C1=O [Example 125],9,330,
Cc1ccc(NC(=O)NC2CCCN(c3ccc(-c4cccnc4)cc3)C2=O)cc1 (centres unmarked) [Example 15],8.4,200,
"O=C(Nc1ccc(Cl)cn1)N[C@@H]1C[C@@H](O)CN(c2ccc(-c3ccccc3F)cc2)C1=O [Example 269, 1-(5-Chloropyridin-2-yl)-3-((3R,5R)-1-(2′-fluoro-[1,1′-biphenyl]-4-yl)-5-hydroxy-2-oxopiperidin-3-yl)urea]",,,5 to 40
"O=C(Nc1ccc(Cl)cc1)NC1CCCN(c2ccc(-c3cccnc3)cc2)C1=O (centres unmarked) [Example 16, 1-(4-chlorophenyl)-3-(2-oxo-1-(4-(pyridin-3-yl)phenyl)piperidin-3-yl)urea]",9.3,390,
"CS(=O)(=O)c1ccccc1-c1ccc(N2CCCC(NC(=O)Nc3ccc(F)cc3)C2=O)c(F)c1 (centres unmarked) [Example 28, 1-(1-(3-fluoro-2′-(methylsulfonyl)-[1,1′-biphenyl]-4-yl)-2-oxopiperidin-3-yl)-3-(4-fluorophenyl)urea]",560,1200,
O=C(Nc1ccc(C(F)(F)F)cc1)N[C@@H]1CCCN(c2ccc(-c3cncc(N4CCOCC4)c3)cc2)C1=O [Example 166],8,330,
CS(=O)(=O)Nc1ccccc1-c1ccc(N2CCC[C@@H](NC(=O)Nc3ccc(C(F)(F)F)cn3)C2=O)cc1 [Example 184],8.1,1500,
CS(=O)(=O)Nc1ccccc1-c1ccc(N2CCC[C@@H](NC(=O)Nc3ccc(OC(F)F)nc3)C2=O)cc1 [Example 257],17,3500,
CS(=O)(=O)Nc1ccccc1-c1ccc(N2C[C@H](O)C[C@@H](NC(=O)Nc3ccc(Cl)cn3)C2=O)cc1 [Example 215],2,260,
"COc1ccc(NC(=O)NC2CCCN(c3ccc(-c4ccccc4S(C)(=O)=O)cc3F)C2=O)cc1 (centres unmarked) [Example 17, 1-(1-(3-fluoro-2′-(methylsulfonyl)-[1,1′-biphenyl]-4-yl)-2-oxopiperidin-3-yl)-3-(4-methoxyphenyl)urea]",10,170,

# Other lines, results leading:
EC50 (human FPR2; [1]) [nM],EC50 (human FPR1) [nM],EC50 (human FPR2; [2]) [nM],SMILES
0.32,100,,CS(=O)(=O)Nc1ccccc1-c1ccc(N2CCC[C@@H](NC(=O)Nc3ccc(C(F)(F)F)cc3)C2=O)cc1 [Example 66]
0.76,220,,COc1ccc(NC(=O)N[C@@H]2CCCN(c3ccc(-c4ccccc4NS(C)(=O)=O)cc3)C2=O)c(F)c1 [Example 197]
0.81,10,,N#Cc1ccccc1-c1ccc(N2CCC[C@@H](NC(=O)Nc3ccc(Cl)cc3)C2=O)cc1 [Example 76]
8.5,680,,"NCc1cccc(-c2ccc(N3CCC[C@@H](NC(=O)Nc4ccc(Cl)cc4)C3=O)cc2)c1F [Example 276, (R)-1-(1-(3′-(Aminomethyl)-2′-fluoro-[1,1′-biphenyl]-4-yl)-2-oxopiperidin-3-yl)-3-(4-chlorophenyl)urea]"
520,2600,,Cc1ccc(NC(=O)N[C@@H]2CCCN(c3ccc(-c4ccccc4C(N)=O)cc3)C2=O)c(C)c1 [Example 175]
380,210,,"Cc1cnc(NC(=O)NC2CCCN(c3ccc(-c4ccccc4S(C)(=O)=O)cc3F)C2=O)s1 (centres unmarked) [Example 26, 1-(1-(3-fluoro-2′-(methylsulfonyl)-[1,1′-biphenyl]-4-yl)-2-oxopiperidin-3-yl)-3-(5-methylthiazol-2-yl)urea]"
17,1400,,COc1cc(-c2ccccc2NS(C)(=O)=O)ccc1N1CCC[C@@H](NC(=O)Nc2ccc(C(F)(F)F)cn2)C1=O [Example 256]
0.59,210,,"CS(=O)(=O)Nc1ccccc1-c1cc(F)c(N2CCC[C@@H](NC(=O)Nc3ccc(Cl)cc3)C2=O)c(F)c1 [Example 260, (R)—N-(4′-(3-(3-(4-chlorophenyl)ureido)-2-oxopiperidin-1-yl)-3′,5′-difluoro-[1,1′-biphenyl]-2-yl)methanesulfonamide]"
,,≤ 5,"CS(=O)(=O)Nc1c(F)cccc1-c1ccc(N2CCC[C@@H](NC(=O)Nc3ccc(Cl)cc3)C2=O)cc1 [Example 279, (R)-N-(4′-(3-(3-(4-Chlorophenyl)ureido)-2-oxopiperidin-1-yl)-3-fluoro-[1,1′-biphenyl]-2-yl]methanesulfonamide]"
330,1600,,"Cc1ccncc1-c1ccc(N2CCCC(NC(=O)Nc3ccc(C(F)(F)F)cc3)C2=O)cc1 (centres unmarked) [Example 47, 1-(1-(4-(4-methylpyridin-3-yl)phenyl)-2-oxopiperidin-3-yl)-3-(4-(trifluoromethyl)phenyl)urea]"
,,≤ 5,"N#Cc1ccccc1-c1ccc(N2CCC[C@@H](NC(=O)Nc3cnc(Cl)cn3)C2=O)c(F)c1F [Example 275, (R)-1-(5-Chloropyrazin-2-yl)-3-(1-(2′-cyano-2,3-difluoro-[1,1′-biphenyl]-4-yl)-2-oxopiperidin-3-yl)urea]"
,,5 to 40,CS(=O)(=O)Nc1ccccc1-c1ccc(N2CCC[C@@H](NC(=O)Nc3ccc(Cl)cc3)C2=O)cc1OC(F)(F)F [Example 300]
,,≤ 5,"CC(N)c1cccc(-c2ccc(N3CCC[C@@H](NC(=O)Nc4ccc(Cl)cc4F)C3=O)c(F)c2F)c1 (stereo partly drawn) [Example 274, 1-((3R)-1-(3′-(1-Aminoethyl)-2,3-difluoro-[1,1′-biphenyl]-4-yl)-2-oxopiperidin-3-yl)-3-(4-chloro-2-fluorophenyl)urea]"
,,≤ 5,"CS(=O)(=O)Nc1cccc(-c2ccc(N3CCC[C@@H](NC(=O)Nc4ccc(Cl)cc4)C3=O)cc2)c1F [Example 278, (R)-N-(4′-(3-(3-(4-Chlorophenyl)ureido)-2-oxopiperidin-1-yl)-2-fluoro-[1,1′-biphenyl]-3-yl)methanesulfonainide]"
